pIC50: −log10 of the molar value. Activity calls are given as the source filed them. No cut-off for these calls is given here.
Legend:
MM1.S [1] = test: Antiproliferative activity against human MM.1S cells assessed as inhibition of cell growth at upto 100 uM incubated for 72 hrs by microplate photometer analysis; format: functional, cell-based
MM1.S [2] = test: cells; format: functional, cell-based; conditions: Homo sapiens, 72 h
Description: Antiproliferative activity against human MM.1S cells assessed as inhibition of cell growth incubated for 72 hrs by microplate photometer analysis

[3] = biological target: T1, Protein deacetylase HDAC6 (Homo sapiens) (UniProt Q9UBN7); test: Induction of HDAC6 degradation in human MM1.S cells at 20 uM incubated for 24 hrs by immunoblot analysis; format: cell-based
T1 sequence (whole entry): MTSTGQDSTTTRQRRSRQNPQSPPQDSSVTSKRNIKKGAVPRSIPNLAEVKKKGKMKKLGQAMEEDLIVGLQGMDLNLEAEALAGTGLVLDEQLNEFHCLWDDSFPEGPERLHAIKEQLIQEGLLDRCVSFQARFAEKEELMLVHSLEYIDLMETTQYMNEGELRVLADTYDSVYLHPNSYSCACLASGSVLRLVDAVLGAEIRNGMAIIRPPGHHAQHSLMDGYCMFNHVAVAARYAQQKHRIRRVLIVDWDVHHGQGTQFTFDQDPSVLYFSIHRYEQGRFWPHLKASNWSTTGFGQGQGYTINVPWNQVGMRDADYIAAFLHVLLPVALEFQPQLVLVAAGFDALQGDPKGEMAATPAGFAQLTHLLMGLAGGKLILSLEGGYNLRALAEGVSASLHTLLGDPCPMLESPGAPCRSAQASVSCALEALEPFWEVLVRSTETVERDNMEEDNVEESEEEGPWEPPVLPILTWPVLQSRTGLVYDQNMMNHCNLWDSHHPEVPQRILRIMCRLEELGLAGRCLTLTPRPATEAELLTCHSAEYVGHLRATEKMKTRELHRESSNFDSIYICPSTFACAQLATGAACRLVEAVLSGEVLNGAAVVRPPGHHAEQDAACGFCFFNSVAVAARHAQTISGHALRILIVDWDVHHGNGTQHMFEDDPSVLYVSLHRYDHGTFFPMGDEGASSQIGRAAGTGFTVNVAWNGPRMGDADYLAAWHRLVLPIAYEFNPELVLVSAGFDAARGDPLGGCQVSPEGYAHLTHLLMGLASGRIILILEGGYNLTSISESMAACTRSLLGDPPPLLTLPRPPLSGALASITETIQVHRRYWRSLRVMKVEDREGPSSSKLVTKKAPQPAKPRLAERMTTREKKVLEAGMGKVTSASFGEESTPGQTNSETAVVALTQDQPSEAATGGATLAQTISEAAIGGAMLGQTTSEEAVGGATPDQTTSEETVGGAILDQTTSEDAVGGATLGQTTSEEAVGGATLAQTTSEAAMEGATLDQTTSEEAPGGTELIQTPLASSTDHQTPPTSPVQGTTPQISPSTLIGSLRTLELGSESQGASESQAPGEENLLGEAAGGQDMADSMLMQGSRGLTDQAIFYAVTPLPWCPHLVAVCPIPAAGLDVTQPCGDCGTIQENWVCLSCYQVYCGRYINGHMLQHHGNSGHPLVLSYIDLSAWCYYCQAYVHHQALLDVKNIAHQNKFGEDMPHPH

[4] = biological target: Histone deacetylase 4 (Homo sapiens) (UniProt P56524); test: Induction of HDAC4 degradation in human MM1.S cells at 20 uM incubated for 24 hrs by immunoblot analysis; format: cell-based
Histone deacetylase 2 [5] = biological target: T2, Histone deacetylase 2 (Homo sapiens, UniProt Q92769)
Description: Inhibition of C-terminal flag tagged human recombinant full length HDAC2 (1 to 488 residues) using Z- Lys(Ac)-AMC as fluorogenic substrate incubated for 90 mins followed by trypsin addition and measured after 30 min by microplate reader analysis

Histone deacetylase 1 [6] = biological target: T3, Histone deacetylase 1 (Homo sapiens, UniProt Q13547); test: Induction of HDAC1 degradation in human MM1.S cells at 20 uM incubated for 24 hrs by immunoblot analysis; format: cell-based
Histone deacetylase 1 [7] = biological target: T3, Histone deacetylase 1; test: Inhibition of C-terminal 6His tagged human recombinant full length HDAC1 (1 to 482 residues) using Z- Lys(Ac)-AMC as fluorogenic substrate incubated for 90 mins followed by trypsin addition and measured after 30 min by microplate reader analysis
[8] = biological target: T4, Protein deacetylase HDAC6 (Homo sapiens, UniProt Q9UBN7); test: Inhibition of C-terminal GST tagged human recombinant full length HDAC6 (1 to 1215 residues) using Z- Lys(Ac)-AMC as fluorogenic substrate incubated for 90 mins followed by trypsin addition and measured after 30 min by microplate reader analysis
T4 sequence (Q9UBN7 whole entry): T1 sequence (whole entry)

Histone deacetylase = test: Inhibition of human recombinant HDAC in human MM.1S cells using Boc-Lys(Epsilon-Ac)-AMC as substrate preincubated for 18 hrs followed by substrate addition and measured after 3 hrs by microplate reader analysis; format: cell-based; conditions: mm1.s
MM1.S [9] = test: Induction of apoptosis in human MM1.S cells assessed as early apoptosis at 20 uM incubated for 48 hrs by Annexin V-FITC/PI staining based flow cytometry; format: functional, cell-based
MM1.S [10] = test: Induction of apoptosis in human MM1.S cells assessed as late apoptosis at 20 uM incubated for 48 hrs by Annexin V-FITC/PI staining based flow cytometry; format: functional, cell-based
Histone deacetylase 1 [11] = biological target: T3, Histone deacetylase 1; test: Induction of HDAC1 degradation in human MM1.S cells incubated for 24 hrs by immunoblot analysis; format: cell-based
[12] = biological target: Histone deacetylase 4 (Homo sapiens) (UniProt P56524); test: Inhibition of N-terminal GST/C-terminal His-tagged human recombinant HDAC4 (627 to 1084 residues) expressed in baculovirus expression system using Boc-Lys(Tfa)-AMC as fluorogenic substrate at 10 uM incubated for 90 min followed by trypsin addition and measured after 30 min by microplate reader analysis; conditions: time 120.0 min
Histone deacetylase 2 [13] = biological target: T2, Histone deacetylase 2; test: Induction of HDAC2 degradation in human MM1.S cells at 20 uM incubated for 24 hrs by immunoblot analysis; format: cell-based
Histone deacetylase 1 [14] = biological target: T3, Histone deacetylase 1; test: Induction of HDAC1 degradation in human MM1.S cells at 20 uM incubated for 24 hrs in the presence of MG132 by immunoblot analysis; format: cell-based

T2 sequence (Q92769 whole entry): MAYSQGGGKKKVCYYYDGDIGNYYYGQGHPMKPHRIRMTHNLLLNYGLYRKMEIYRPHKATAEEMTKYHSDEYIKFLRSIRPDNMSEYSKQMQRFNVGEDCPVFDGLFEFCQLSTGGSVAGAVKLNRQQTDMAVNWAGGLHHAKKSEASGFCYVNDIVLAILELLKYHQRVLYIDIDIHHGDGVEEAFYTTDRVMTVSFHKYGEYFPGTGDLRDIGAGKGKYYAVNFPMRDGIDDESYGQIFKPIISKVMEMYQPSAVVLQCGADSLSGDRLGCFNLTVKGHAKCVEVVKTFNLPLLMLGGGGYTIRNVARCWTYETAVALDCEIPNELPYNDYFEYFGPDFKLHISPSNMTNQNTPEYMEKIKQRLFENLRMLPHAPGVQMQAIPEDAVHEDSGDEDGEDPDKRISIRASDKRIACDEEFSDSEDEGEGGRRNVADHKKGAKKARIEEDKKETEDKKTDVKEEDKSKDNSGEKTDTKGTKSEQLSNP
Sequence of Histone deacetylase 4 (Homo sapiens) (P56524 whole entry, the tested form may be a part): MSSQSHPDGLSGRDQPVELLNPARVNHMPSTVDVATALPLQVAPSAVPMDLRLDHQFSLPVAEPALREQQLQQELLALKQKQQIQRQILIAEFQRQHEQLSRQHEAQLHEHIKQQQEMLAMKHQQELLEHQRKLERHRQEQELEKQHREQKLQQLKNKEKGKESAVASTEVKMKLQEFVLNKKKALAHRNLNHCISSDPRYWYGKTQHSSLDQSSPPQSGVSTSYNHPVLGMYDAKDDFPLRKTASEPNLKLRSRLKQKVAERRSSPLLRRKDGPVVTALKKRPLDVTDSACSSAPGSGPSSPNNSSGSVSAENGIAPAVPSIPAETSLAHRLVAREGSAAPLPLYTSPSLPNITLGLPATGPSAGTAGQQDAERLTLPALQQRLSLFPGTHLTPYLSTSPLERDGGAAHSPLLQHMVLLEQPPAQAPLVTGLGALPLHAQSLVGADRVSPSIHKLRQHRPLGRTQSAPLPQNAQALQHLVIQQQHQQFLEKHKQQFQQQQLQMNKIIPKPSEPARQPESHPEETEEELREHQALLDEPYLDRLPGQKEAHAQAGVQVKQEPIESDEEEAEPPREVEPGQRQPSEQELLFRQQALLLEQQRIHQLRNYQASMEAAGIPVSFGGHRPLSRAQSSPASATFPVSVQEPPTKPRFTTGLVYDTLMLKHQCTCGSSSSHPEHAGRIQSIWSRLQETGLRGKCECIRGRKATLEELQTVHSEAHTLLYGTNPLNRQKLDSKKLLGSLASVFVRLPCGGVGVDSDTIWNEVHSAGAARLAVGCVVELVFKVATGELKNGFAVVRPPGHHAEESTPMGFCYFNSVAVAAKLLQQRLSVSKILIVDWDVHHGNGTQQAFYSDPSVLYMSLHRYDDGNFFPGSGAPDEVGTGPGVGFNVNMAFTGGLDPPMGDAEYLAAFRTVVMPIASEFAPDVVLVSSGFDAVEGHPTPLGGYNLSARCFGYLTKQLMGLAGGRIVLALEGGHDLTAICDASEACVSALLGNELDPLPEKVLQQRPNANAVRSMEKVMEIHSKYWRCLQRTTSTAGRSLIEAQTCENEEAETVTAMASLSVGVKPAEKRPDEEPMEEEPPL
T3 sequence (Q13547 whole entry, the tested form may be a part): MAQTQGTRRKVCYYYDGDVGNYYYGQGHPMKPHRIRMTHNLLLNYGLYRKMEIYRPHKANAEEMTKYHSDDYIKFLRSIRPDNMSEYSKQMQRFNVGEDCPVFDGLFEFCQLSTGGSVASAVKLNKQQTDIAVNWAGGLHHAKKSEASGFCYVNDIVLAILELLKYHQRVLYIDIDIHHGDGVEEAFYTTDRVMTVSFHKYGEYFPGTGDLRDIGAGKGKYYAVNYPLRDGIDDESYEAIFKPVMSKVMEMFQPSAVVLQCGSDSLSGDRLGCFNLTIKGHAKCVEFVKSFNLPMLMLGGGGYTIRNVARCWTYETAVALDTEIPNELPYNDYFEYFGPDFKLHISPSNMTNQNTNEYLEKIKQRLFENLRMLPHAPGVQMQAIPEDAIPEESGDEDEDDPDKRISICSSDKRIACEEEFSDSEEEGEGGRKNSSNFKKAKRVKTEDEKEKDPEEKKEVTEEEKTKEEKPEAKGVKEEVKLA

pIC50 (MM1.S [2])	Activity [3]	Activity [4]	pIC50 (Histone deacetylase 2 [5])	Activity (Histone deacetylase 1 [6])	pIC50 (Histone deacetylase 1 [7])	pIC50 [8]	IC50 (Histone deacetylase)	Emax (Histone deacetylase 1 [11])	inhibition [12]	SMILES	Activity (MM1.S [1])	Activity (MM1.S [9])	Activity (MM1.S [10])	other results
–	–	–	–	–	–	–	–	–	–	O=C(CC12C[C@H]3C[C@@H](C1)C[C@@H](C2)C3)NCCOCCOCCCCCCn1cc(-c2ccc(C(=O)NCc3ccc(C(=O)NO)cc3)cc2)nn1	inactive	–	–	–
4.31	–	–	–	–	–	–	–	–	–	O=C(CCCCCCNC(=O)c1ccc(OCc2cn(CCCCCCOCCOCCNC(=O)CC34C[C@H]5C[C@@H](C3)C[C@@H](C4)C5)nn2)cc1)NO	–	–	–	–
4.94	inactive	inactive	6.80	Active	7.06	8.48	540 nM	47%	inactive	O=C(CCCCCCNC(=O)c1ccc(NC(=O)CNC(=O)CC2c3ccccc3-c3ccccc32)cc1)NO	–	Active	Active	–
–	–	–	–	–	–	–	–	–	–	O=C(CCCCCCNC(=O)c1ccc(NC(=O)CC2c3ccccc3-c3ccccc32)cc1)NO	inactive	–	–	–
4.17	–	–	–	–	–	–	–	–	–	O=C(CCCCCCNC(=O)c1ccc(NC(=O)CCCNC(=O)CC2c3ccccc3-c3ccccc32)cc1)NO	–	–	–	–
–	–	–	–	–	–	–	–	–	–	O=C(CCCCCCNC(=O)c1ccc(NC(=O)CCCCCNC(=O)CC2c3ccccc3-c3ccccc32)cc1)NO	inactive	–	–	–
–	–	–	–	–	–	–	–	–	–	O=C(CC12C[C@H]3C[C@@H](C1)C[C@@H](C2)C3)NCCOCCOCCCCCCn1cc(COc2ccc(C(=O)NCc3ccc(C(=O)NO)cc3)cc2)nn1	inactive	–	–	–
4.64	–	–	–	–	–	–	–	–	–	O=C(CCCCCCNC(=O)c1ccc(NC(=O)CCCCCNC(=O)CC23C[C@H]4C[C@@H](C2)C[C@@H](C3)C4)cc1)NO	–	–	–	–
5.40	inactive	inactive	6.53	Active	6.72	8.28	1120 nM	47%	inactive	O=C(CCCCCCNC(=O)c1ccc(NC(=O)CC23C[C@H]4C[C@@H](C2)C[C@@H](C3)C4)cc1)NO	–	Active	Active	Activity (Histone deacetylase 2 [13]): Active
5.14	inactive	inactive	6.61	Active	6.88	8.23	580 nM	47%	inactive	O=C(CCCCCCNC(=O)c1ccc(NC(=O)CNC(=O)CC23C[C@H]4C[C@@H](C2)C[C@@H](C3)C4)cc1)NO	–	Active	Active	Activity (Histone deacetylase 2 [13]): Active
4.99	inactive	inactive	6.36	Active	6.46	7.75	1170 nM	47%	inactive	O=C(CCCCCCNC(=O)c1ccc(-c2cn(CCCCCCOCCOCCNC(=O)CC34C[C@H]5C[C@@H](C3)C[C@@H](C4)C5)nn2)cc1)NO	–	Active	Active	Activity (Histone deacetylase 1 [14]): inactive
4.62	–	–	–	–	–	–	–	–	–	O=C(CCCCCCNC(=O)c1ccc(NC(=O)CCCNC(=O)CC23C[C@H]4C[C@@H](C2)C[C@@H](C3)C4)cc1)NO	–	–	–	–

— ChEMBL document CHEMBL5390315, “Targeted Protein Degradation of Histone Deacetylases by Hydrophobically Tagged Inhibitors” (ACS Med Chem Lett, 2023)
